Results reported in patent US9539218B2, “Prevention and treatment of thromboembolic disorders” (BAYER INTELLECTUAL PROPERTY GMBH, priority 2005, dated 2017).
Read-outs that look alike come from different tables or passages of the source.

Tests used:
[1] = test system: patients undergoing elective primary total hip replacement; settings: for Primary efficacy, composite endpoint (DVT, PE, death) incidence rate / Primary efficacy, composite endpoint, n of patients with event: 7-9 days
Experimental: This was a dose guiding study for the direct factor Xa inhibitor (I). Objective of the study was the assessment of safety, tolerability, and efficacy of (I) at different oral doses (bid and od) compared with subcutaneously administered enoxaparin 40 mg in the prevention of venous thromboembolism.
642 patients were enrolled in this study and the treatment duration was 7 to 9 days.
The main inclusion criteria for the study were: men ≧18 years of age and postmenopausal women undergoing elective primary total hip replacement.
This was a prospective, randomized, open-label, active comparator controlled, multi-center and multi-national trial designed as a proof-of-principle dose-escalating study in patients undergoing elective primary total hip replacement.
(I) was administered orally as rapid release tablets.
The criteria for evaluation were: • a) The primary efficacy endpoint was a composite endpoint of • Any deep vein thrombosis (DVT) (proximal and/or distal). • Non-fatal pulmonary embolism (PE). • Death from all causes. • The primary endpoint was evaluated 5-9 days after surgery.

[2] = at steady state in humans, healthy male subjects, multiple dose escalation; cited from earlier work
[3] = (I) 2.5 mg bid oral, PP population N = 63
[4] = (I) 5 mg bid oral, PP population N = 63
[5] = (I) 10 mg bid oral, PP population N = 55
[6] = (I) 20 mg bid oral, PP population N = 59
[7] = (I) 30 mg bid oral, PP population N = 46
[8] = (I) 30 mg od oral, PP population N = 73

Q: Which DVT rate ([1]; 30 mg (I) once daily for 7 to 9 days, 73 patients undergoing THR surgery) does the source give for O=C(NC[C@H]1CN(c2ccc(N3CCOCC3=O)cc2)C(=O)O1)c1ccc(Cl)s1 [(I), 5-Chloro-N-({(5S)-2-oxo-3-[4-(3-oxo-4-morpholinyl)-phenyl]-1,3-oxazolidin-5-yl}-methyl)-2-thiophenecarboxamide] here?
A: The DVT rate was 12.3%.

Q: And the “Prevention of venous thromboembolism (VTE)” value ([1]; 7-9-day treatment, 2.5 to 30 mg bid, adults undergoing elective hip replacement, compared with enoxaparin)?
A: Its value is “prevented venous thromboembolism (VTE)”.

Q: And the “Primary efficacy, composite endpoint (DVT, PE, death) incidence rate” value [1, 3]?
A: The value was 22.2%.

Q: And the “Primary efficacy, composite endpoint, n of patients with event” value (from here on “Primary efficacy, composite endpoint, n”) [1, 3]?
A: Its value is 14.

Q: And the “Primary efficacy, composite endpoint (DVT, PE, death) incidence rate” value [1, 4]?
A: The value was 23.8%.

Q: And the “Primary efficacy, composite endpoint, n” value [1, 4]?
A: The value was 15.

Q: What about the “Primary efficacy, composite endpoint (DVT, PE, death) incidence rate” value [1, 5] of the same molecule?
A: The value was 20.0%.

Q: What about the “Primary efficacy, composite endpoint, n” value [1, 5] of the same molecule?
A: Its value is 11.

Q: What about the “Primary efficacy, composite endpoint (DVT, PE, death) incidence rate” value [1, 6] of the same molecule?
A: Its value is 10.2%.

Q: And the “Primary efficacy, composite endpoint, n” value [1, 6]?
A: The value was 6.

Q: And the “Primary efficacy, composite endpoint (DVT, PE, death) incidence rate” value [1, 7]?
A: Its value is 17.4%.

Q: And the “Primary efficacy, composite endpoint, n” value [1, 7]?
A: The value was 8.

Q: And the “Primary efficacy, composite endpoint (DVT, PE, death) incidence rate” value [1, 8]?
A: Its value is 15.1%.

Q: And the “Primary efficacy, composite endpoint, n” value [1, 8]?
A: The value was 11.

Q: What about the “plasma concentration half life” value [2] of the same molecule?
A: The value was 4 to 6 h.
